Literature values in PMC8279981, “A first-in-human, phase 1 study of the NEDD8 activating enzyme E1 inhibitor TAS4464 in patients with advanced solid tumors” (Investigational New Drugs, 2021).
Read-outs that look alike come from different tables or passages of the source.

What was measured:
[1] = tested on: patients; set-up: method as in PMID 26561559, PMID 25733005, PMID 27056178, PMID 26423795; settings: clinical trials; cited from earlier work
[2] = tested on: cells derived from macrophages; set-up: method as in PMID 22927439; settings: cited from earlier work
[3] = tested on: bleomycin-induced idiopathic pulmonary fibrosis models; set-up: method as in PMID 28469786; settings: cited from earlier work
[4] = tested on: rats; set-up: method as in PMID 27551465, PMID 22927439; settings: cited from earlier work

NS(=O)(=O)OC[C@@H]1C[C@@H](n2ccc3c(N[C@H]4CCc5ccccc54)ncnc32)C[C@@H]1O [MLN4924]
abnormal liver function tests (ALT and AST increased) [1]: one of the major AEs
production of TNF-α [2]: suppress the production of TNF-α
efficacy in pulmonary fibrosis models [3]: efficacy in bleomycin-induced idiopathic pulmonary fibrosis models has been shown
AST, ALT, sorbitol dehydrogenase ([4]; combination of TNF-α and MLN4924): Increases in laboratory values
AST, ALT, sorbitol dehydrogenase ([4]; rats, MLN4924 administration alone): no increases in AST, ALT, or sorbitol dehydrogenase
